Assay [1] concerns Staphylococcus aureus. Nature of the assay: Antimicrobial activity against Staphylococcus aureus ATCC 13709a at 1000 ug/ml. In kind it is functional, organism-based.
In assay [2] the test system is Escherichia coli. Kind of assay: Antimicrobial activity against Escherichia coli ATCC 9637 at 1000 ug/ml. It is filed as functional, organism-based.
The test system of assay [3] is Salmonella enterica subsp. enterica serovar Gallinarum. Kind of assay: Antimicrobial activity against Salmonella gallinarum ATCC 9184 at 1000 ug/ml. In kind it is functional, organism-based.
Assay [4] has as its system Klebsiella pneumoniae. Kind of assay: Antimicrobial activity against Klebsiella pneumoniae ATCC 10031 at 1000 ug/ml. In kind it is functional, organism-based.
Assay [5] relates to Mycolicibacterium smegmatis. Kind of assay: Antimicrobial activity against Mycobacterium smegmatis ATCC 607 at 1000 ug/ml. In kind it is functional, organism-based.
The test system of assay [6] is Candida albicans. Nature of the assay: Antimicrobial activity against Candida albicans ATCC 10231 at 1000 ug/ml. In kind it is functional, organism-based.
The test system of assay [7] is Staphylococcus aureus. Nature of the assay: Antimicrobial activity against Staphylococcus aureus ATCC 13709a. It is filed as functional.
For assay [8], the system named is Mycolicibacterium smegmatis. Nature of the assay: Antimicrobial activity against Mycobacterium smegmatis ATCC 607. It is filed as functional.
For assay [9], the system named is Escherichia coli. Kind of assay: Antimicrobial activity against Escherichia coli ATCC 9637. In kind it is functional.
The subject of assay [10] is Salmonella enterica subsp. enterica serovar Gallinarum. Nature of the assay: Antimicrobial activity against Salmonella gallinarum ATCC 9184. It is filed as functional.
In assay [11] the test system is Klebsiella pneumoniae. Kind of assay: Antimicrobial activity against Klebsiella pneumoniae ATCC 10031. It is filed as functional.
The subject of assay [12] is Candida albicans. Kind of assay: Antimicrobial activity against Candida albicans ATCC 10231. It is filed as functional.

Activity calls are given as the source filed them. The calls are words filed in the database; no cut-off is given here.

With `O=C1NCCc2cc3c(cc21)OCO3`, the outcome (in the assay with Staphylococcus aureus [1]; with Escherichia coli [2]; in assay [3]; with Klebsiella pneumoniae [4]; in assay [5]; in the assay on Candida albicans [6]) was inactive.
Take `COc1cc2c(cc1O)[C@H](Cc1ccc(OC)c(Oc3ccc(C[C@H]4c5cc(OC)c(OC)cc5CCN4C)cc3)c1)N(C)CC2` [NEOTHALIBRINE]: the Activity (in the assay with Staphylococcus aureus [7]; in assay [8]) was 1000 µg/mL in each case. Further, the outcome (in the assay with Escherichia coli [2]; in assay [3]; in the assay on Klebsiella pneumoniae [4]; with Candida albicans [6]) was inactive.
With `CN[C@@H]1[C@H](O[C@H]2[C@H](O[C@H]3[C@H](O)[C@@H](O)[C@H](N=C(N)N)[C@@H](O)[C@@H]3N=C(N)N)O[C@@H](C)[C@]2(O)C=O)O[C@@H](CO)[C@H](O)[C@H]1O` [STREPTOMYCIN], the Activity with Staphylococcus aureus [7] came to 3.1 µg/mL; with Escherichia coli [9], 12.5 µg/mL; in [10], 25 µg/mL; with Klebsiella pneumoniae [11], 1.56 µg/mL; in assay [8], 0.78 µg/mL. Moreover, the result in the assay with Candida albicans [6] was inactive.
As for `COc1cc(CCN(C)C)c2ccc3cc4c(cc3c2c1OC)OCO4` [THALICTHUBERINEC], the Activity in the assay with Staphylococcus aureus [7] was determined as 100 µg/mL; in assay [10] it was 1000 µg/mL; in the assay on Klebsiella pneumoniae [11], 1000 µg/mL; in assay [8], 25 µg/mL; in the assay with Candida albicans [12] it was 50 µg/mL. In addition, the outcome in the assay on Escherichia coli [2] was inactive.
On to `COc1cc2c3c(c1O)Oc1c4c(cc(OC)c1OC)[C@H](Cc1ccc(cc1)Oc1cc(ccc1O)C[C@@H]3N(C)CC2)N(C)CC4` [THALIGOSIDINE], for which the Activity worked out at 1000 µg/mL with Staphylococcus aureus [7], 100 µg/mL in [8] and 1000 µg/mL with Candida albicans [12]. The outcome (in the assay on Escherichia coli [2]; in assay [3]; with Klebsiella pneumoniae [4]) was inactive.
Consider `CCOc1c2c3c(c(OC)c1OC)Oc1cc4c(cc1OC)CCN(C)[C@H]4Cc1ccc(OC)c(c1)Oc1ccc(cc1)C[C@@H]3N(C)CC2` [THALIGOSINE ETHYL ETHER], for which the Activity in the assay with Staphylococcus aureus [7] amounted to 100 µg/mL; in the assay on Klebsiella pneumoniae [11], 1000 µg/mL; in [8], 100 µg/mL; in the assay with Candida albicans [12], 100 µg/mL. For the same compound, the result (with Escherichia coli [2]; in assay [3]) was inactive.
In the case of `COc1ccc2cc1Oc1ccc(cc1)C[C@H]1c3c(c(O)c(OC)c(OC)c3Oc3cc4c(cc3OC)CCN(C)[C@H]4C2)CCN1C` [THALIGOSINE], the Activity in the assay with Staphylococcus aureus [7] was found to be 100 µg/mL; in assay [8] it was 100 µg/mL; in the assay on Candida albicans [12], 1000 µg/mL. Also, the outcome (with Escherichia coli [2]; in assay [3]) was inactive.
As to `COc1cc2c3cc1Oc1c(OC)c(OC)c(OC)c4c1[C@H](Cc1ccc(cc1)Oc1cc(ccc1O)C[C@@H]3N(C)CC2)N(C)CC4` [THALIGOSININE], the Activity (with Staphylococcus aureus [7]; with Klebsiella pneumoniae [11]; in assay [8]) was 1000 µg/mL each time. Further, the result (with Escherichia coli [2]; in assay [3]; in the assay on Klebsiella pneumoniae [4]; in the assay on Candida albicans [6]) was inactive.
Turning to `COc1ccc(C[C@H]2c3cc(OC)c(OC)c(O)c3CCN2C)cc1Oc1ccc(C[C@H]2c3cc(OC)c(OC)c(O)c3CCN2C)cc1` [THALIRUGIDINE], the Activity (with Staphylococcus aureus [7]; in assay [8]) was 1000 µg/mL each time. In addition, the outcome (in the assay on Escherichia coli [2]; in assay [3]; in the assay on Klebsiella pneumoniae [4]; in the assay with Candida albicans [6]) was inactive.
On to `COc1cc2c(cc1O)[C@H](Cc1ccc(OC)c(Oc3ccc(C[C@H]4c5cc(OC)c(OC)c(O)c5CCN4C)cc3)c1)N(C)CC2` [THALIRUGINE], for which the Activity (with Staphylococcus aureus [7]; in assay [8]) was 1000 µg/mL throughout. In addition, the outcome (in the assay on Escherichia coli [2]; in [3]; with Klebsiella pneumoniae [4]; in the assay with Candida albicans [6]) was inactive.

The values above are taken from ChEMBL document CHEMBL1151338, “Alkaloids of Thalictrum XXX. Eleven Minor Alkaloids From Thalictrum rugosum” (1980).
